Measured values from the METLIN SMRT retention time set (Domingo-Almenara et al. 2019).

Assay: gradient 5% acetonitrile 3 min, to 50% in 2 min, to 85% in 15 min, held 3 min, 100 µL/min
Details: column: Zorbax Extend-C18 2.1 x 50 mm; eluents: water / acetonitrile, 0.1% formic acid
Procedure, shortened: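 Mixtures of ~100 pure standards were chromatographed on a Zorbax Extend-C18 column (2.1 × 50 mm, 1.8 μm) at 100 μL/min using water and acetonitrile, each with 0.1% formic acid. Detection used a quadrupole time-of-flight mass spectrometer in positive and negative ionization mode, and data collection spanned 3 months. Retention time was obtained from adduct peaks picked computationally and each checked manually.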

Row | Structure (SMILES) | RP-LC retention time [s]
1 | CCC1CCCCN1C(=O)CSc1n[nH]c(-c2ccccc2)n1 (centres undefined) | 819
2 | Cc1cc(NC(=O)C2CCN(C(=O)c3ncn4c3COC(c3ccc(F)cc3)C4)CC2)ccc1F (centres undefined) | 839
3 | CN(CCc1noc(-c2ccc(C(=O)N3CCCCC3)cc2)n1)C(=O)C1CC1 | 742
4 | Cc1nc(-c2csc(S(=O)(=O)N3CCC(C(=O)N4c5ccccc5CC4C)CC3)c2)no1 (centres undefined) | 1050
5 | Cc1noc(C)c1S(=O)(=O)N1CCC(C(=O)NCCc2csc(-c3cccs3)n2)CC1 | 858
6 | O=C(Nc1ccc2c(c1)OCCO2)N1CCC2(CC1)Nc1ccccc1-n1cccc12 | 934
7 | O=C(Cc1ccc(Cl)cc1)N1CCC2(C1)C(=O)Nc1ccccc12 (centres undefined) | 758
8 | COc1ccc(CNc2nc3ccncc3n(C(C)C)c2=O)c(OC)c1 | 681
9 | O=C1CCCc2cc(S(=O)(=O)NCC3CCN(Cc4cccc(F)c4)CC3)ccc2N1 | 606
10 | Cc1csc(-c2ccc(N3CCN(C(=O)c4cccc5[nH]ccc45)CC3)nc2)n1 | 756
11 | O=C(CSc1ccc(N2CCCC(C(=O)NC3CC3)C2)nn1)Nc1ccc(F)c(F)c1 (centres undefined) | 680
12 | CCSc1nnc(-c2nn(C)c3c2CN(S(=O)(=O)CC)CC3)n1CC | 750
13 | O=C(NCCc1ccccc1)NC1CCN(C(=O)N2C[C@H]3C[C@H](C2)[C@H]2CCCC(=O)N2C3)CC1 | 658
14 | CO[C@H]1C(=O)N(C(C)C)[C@H]1C1CCN(C(=O)Nc2ccc(C)c(C)c2)CC1 | 820
15 | COC(=O)c1ccc(Cl)cc1NC(=O)N1CCN(CCn2cnc3cccnc32)CC1 | 663
16 | COc1ccc(/C=C/c2cc3c(cc2OC)OCCO3)cc1O | 938
17 | Cc1nc(-c2ccc(OC3CCN(C(=O)CCc4nc5ccccc5[nH]4)C3)cc2)no1 (centres undefined) | 643
18 | COc1ccccc1N1CCN(c2cc(SCC(=O)NCc3ccc(Cl)cc3)ncn2)CC1 | 1110
19 | CC(C)(C)c1ccc(-c2noc(Cn3c(=O)n(-c4cccc(F)c4)c(=O)c4sccc43)n2)cc1 | 1220
20 | COc1ccc(-c2cn3c(CC(=O)N4CCN(c5ccccn5)CC4)csc3n2)cc1OC | 1030
21 | Cc1cc(C)n(-c2ccnc(N3CCC(C(=O)NC4CC4)CC3)n2)n1 | 693

Row | Structure (SMILES) | RP-LC retention time [s]
22 | CCN(CC)C(=O)c1ccc(-c2nc3cc(NS(=O)(=O)c4ccccc4F)ccc3n2C)cc1 | 679
23 | Cc1cc(C)c2c(N3CCOCC3)nc(C(=O)NCC3CCCO3)nc2n1 (centres undefined) | 585
24 | COc1ccc(-c2noc(C3CC(=O)N(c4ccc(C)c(Cl)c4)C3)n2)cc1OC (centres undefined) | 1020
25 | CN(C)C(=O)c1ccc2c(c1)nc(CN(C)C(=O)Nc1ccc(Br)cc1)n2C | 628
26 | COc1ccc(S(=O)(=O)N2CCCCC2CC(=O)Nc2ncccn2)cc1 (centres undefined) | 647
27 | CCC(=O)NCc1nc2c(n1CC)CN(C(=O)c1ccc(C(F)(F)F)s1)CC2 | 579
28 | Cc1nn(-c2ccc(C(=O)N3CCCCC3)cc2)c2c1C(=O)CCC2 | 721
29 | Cc1ccc(NC(=O)c2cc3c(s2)CN(C2CCCC2)C3)c(C)c1 | 663
30 | O=C(Cn1ccnc1-c1ccnc(N2CCCC2)c1)NCc1ccc(Cl)cc1 | 601
31 | O=S(=O)(Nc1cccn2ncnc12)c1cccc(C(F)(F)F)c1 | 804
32 | O=C(CCCc1ccccc1)N1CC(n2ccnc2)C1 | 606
33 | Cc1ccc(C)c(NC(=O)N2CCC(c3nc(C(=O)N4CCOCC4)c(C)o3)CC2)c1 | 712
34 | O=C(NCC1CCCCC1)C1CCCN(c2nccn3nc(-c4ccccc4Cl)cc23)C1 (centres undefined) | 1040
35 | Cc1noc(C)c1CN1CCN(C(=O)NCc2ccc(F)cc2)CC1 | 598
36 | O=C(Nc1ccc2c(c1)OCO2)c1coc(NC(=O)c2ccco2)n1 | 651
37 | COc1ccc(-c2nc(C)cc3nn(CC(=O)NCc4ccccc4)c(=O)n23)cc1 | 788
38 | COc1cccc(CNC(=O)CSc2nccnc2N2CCSCC2)c1OC | 824
39 | c1ccc(CNc2nnc(-c3nc(C4CC4)no3)c3ccccc23)cc1 | 878
40 | CC(C)c1ccc(-c2nc3ccccc3s2)cc1 | 958
41 | O=C(Nc1cc(F)cc(F)c1)N1CCC(CCNC(=O)C2(c3ccccc3)CC2)CC1 | 984
42 | CCCn1c(=O)sc2cc(S(=O)(=O)N3CCC(C(=O)NCc4ccccc4)CC3)ccc21 | 932

Other lines, results leading:

Row | RP-LC retention time [s] | Structure (SMILES)
43 | 896 | COC[C@@H]1OCCN(S(=O)(=O)c2cc(OC)ccc2OC)[C@H]1c1ccccc1
44 | 777 | CC1CCN(CCNc2ccc(-c3nc(-c4ccc(F)cc4)no3)cn2)CC1
45 | 1080 | CC(=O)c1cc2c(cc1NC(=O)c1ccc(COc3ccccc3)o1)OCO2
46 | 555 | O=C(CCc1nc2ccccc2[nH]1)NCC1CCOCC1
47 | 641 | O=C(NC1CCCC1)C1CCN(c2cncnc2N2CCCCC2)CC1
48 | 937 | COc1ccc(NC(=O)c2cn(CC3CCCO3)cc3c(=O)n(-c4ccccc4)nc2-3)cc1 (centres undefined)
49 | 796 | O=C1CC(c2ccco2)Sc2nc3ccccc3n21 (centres undefined)
50 | 1070 | O=C(O)c1cc(-c2ccc(Cl)s2)nc2ccccc12
51 | 598 | O=C(NCc1ccncc1)C1CN(S(=O)(=O)C2CC2)CC12CCCCC2 (centres undefined)
52 | 768 | O=S(=O)(NCc1nc(-c2cccc(-c3ccn[nH]3)c2)no1)c1ccccc1
53 | 987 | Fc1cc(F)cc(-c2nnc(Cc3nc(-c4ccc5c(c4)OCO5)no3)o2)c1
54 | 574 | Cc1nn(C)c(C)c1-c1cc(C(=O)O)[nH]n1
55 | 600 | O=C(NCCc1ccccn1)C1CC(=O)N(c2n[nH]c3cc(Br)ccc23)C1 (centres undefined)
56 | 1020 | CCN(CC)c1nc2cc(C(=O)NCC3CC3)ccc2c(=O)n1Cc1ccccc1
57 | 734 | CC(O)(CNC(=O)c1cnc2ccccc2n1)c1ccccc1 (centres undefined)
58 | 1000 | O=c1ccn(-c2ccc(Cl)cc2)nc1-c1nc(-c2ccccc2Br)no1
59 | 903 | COc1ccc(NC(=O)C2CCN(C(=O)c3nnc(C(=O)Nc4ccc(F)cc4)s3)CC2)cc1
60 | 1040 | CCN1C(=O)COc2ccc(-c3csc(NC(=O)c4ccccc4OC)n3)cc21
61 | 687 | Cc1cc(N(CCO)CCO)n2nc(-c3ccc(C(C)(C)C)cc3)nc2n1
62 | 1290 | CCn1c(C(=O)NC2CCCCCC2)cc2sc(Cl)cc21
63 | 826 | CCc1nnc(-c2ccc(NC(=O)c3ccc(S(=O)(=O)N(CC)CC)cc3)cc2)o1
64 | 827 | O=S(=O)(c1ccc2c(c1)-c1oncc1CO2)N1CCC2(CC1)OCCO2
65 | 991 | O=C(C1COc2ccccc2O1)N1CCc2cc(-c3ccno3)ccc21 (centres undefined)
66 | 723 | CCSc1nc2nc3c(cn2n1)C(=O)CCC3

Row | RP-LC retention time [s] | Structure (SMILES)
67 | 946 | Cc1nc(-c2ccc(N3CCN(C(=O)c4ccc(Cl)cc4)CC3)nc2)sc1C
68 | 806 | CCOc1ccc(C2C3=C(CCCC3=O)Nc3c2c(=O)n(C)c(=O)n3C)cc1OC (centres undefined)
69 | 576 | Cc1noc([C@@H]2CN(Cc3cc(F)ccc3F)C[C@H]2CO)n1
70 | 683 | O=C(NC1CC1)C1CCCN(c2ccc3cc(S(=O)(=O)N4CCCCC4)ccc3n2)C1 (centres undefined)
71 | 907 | O=C(Cc1cccc(C(F)(F)F)c1)Nc1cnn(-c2ncc(N3CCCC3)cn2)c1
72 | 638 | Cc1ncn(CC(=O)Nc2ccc(F)cc2)c(=O)c1C
73 | 774 | Fc1cccc(-c2nnc(C(c3cccc(Cl)c3)N3CCN(c4ccccn4)CC3)o2)c1 (centres undefined)
74 | 667 | CCOCCOC1CCN(C(=O)c2ccco2)CC1
75 | 1080 | Cc1ccc(-c2cc3c(=O)n(CC(O)c4ccc(C)c(C)c4)ccn3n2)c(C)c1 (centres undefined)
76 | 783 | CNC(=O)N1CCC(N2C(=O)C3(CCCCC3)C2c2ccccc2)CC1 (centres undefined)
77 | 586 | COc1ccc(S(=O)(=O)N2CCc3nc[nH]c3C2)cc1
78 | 1090 | CCCn1nnc(NCc2ccc(-c3cccc(Cl)c3)o2)n1
79 | 913 | O=C(c1nnc(-c2csc(S(=O)(=O)N3CCN(c4ncccn4)CC3)c2)o1)N1CCCC1
80 | 1130 | CCc1nc(-c2cc(S(=O)(=O)N3CCC(C(=O)NC4CCCCCCC4)CC3)c(C)s2)no1
81 | 655 | CCCN1C(=O)c2cc(C(=O)NCc3ccc(N(C)C)cc3)nn2CC1(C)C(=O)NC1CCCC1 (centres undefined)
82 | 742 | Cc1noc(C)c1S(=O)(=O)NCC1CCN(C(=O)Nc2ccc(F)cc2)CC1
83 | 987 | Cc1ccc(NC(=O)c2cn(C)nc2S(=O)(=O)N2CCSCC2)cc1C
84 | 587 | Cc1noc2ncnc(N3CCC(C(=O)NCCCN4CCCCC4C)CC3)c12 (centres undefined)
85 | 760 | CCCC(=O)Nc1ccc2c(c1)CN(C(=O)c1ccc(C)cc1C)C(C(=O)N(C)C)C2 (centres undefined)
86 | 1340 | Cc1ccc(Cn2c(C(=O)NC3CCC(C)CC3)cc3sccc32)cc1 (centres undefined)
87 | 569 | Cc1nccn1CCNC(=O)c1cc(-c2ccccc2)on1
88 | 831 | CN(C)S(=O)(=O)c1ccc(-c2nnc(C(=O)NCc3ccccc3)o2)cc1
89 | 755 | Cc1cccc(C)c1Nc1c(-c2ccc(N3CCOCC3)cc2)nc2cnccn12
